Assay results published in ChEMBL document CHEMBL1201862, “PubChem BioAssay data set” (2004).
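Compound exposure: 48 hours, 5 concentrations, 96-well plates. GI50 = concentration required for 50% inhibition of growth.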 Active and inactive are the calls of the source. Rule as the data show it: active = GI50 up to about 1.1 µM and inactive = higher.

Tests used:
Experiment in all cases: NCI anticancer screen, dose series, 48 h
U-251 = tested on: U-251
UO-31 = tested on: UO-31
DU-145 = tested on: DU-145
NCI/ADR-RES = tested on: NCI/ADR-RES
SF-295 = tested on: SF-295
RXF 393 = tested on: RXF 393
A498 = tested on: A498
NCI-H522 = tested on: NCI-H522
RPMI-8226 = tested on: RPMI-8226
HOP-92 = tested on: HOP-92
SR = tested on: SR
TK-10 = tested on: TK-10
UACC-257 = tested on: UACC-257
NCI-H23 = tested on: NCI-H23
OVCAR-8 = tested on: OVCAR-8
LOX IMVI = tested on: LOX IMVI
COLO 205 = tested on: COLO 205
K562 = tested on: K562
SF-268 = tested on: SF-268
MDA-MB-435 = tested on: MDA-MB-435

Measured: GI50

CC(C)=CCC1=C(OCC(=O)O)C(=O)c2ccccc2C1=O
inactive: U-251 30.3 µM | UO-31 28 µM | DU-145 33.5 µM | NCI/ADR-RES 32.1 µM | SF-295 11.9 µM | RXF 393 31.9 µM | A498 76.7 µM | NCI-H522 23.6 µM | RPMI-8226 24.1 µM | HOP-92 47.4 µM | SR 34.3 µM | TK-10 > 100 µM | UACC-257 29.1 µM | NCI-H23 33 µM | OVCAR-8 38.5 µM | LOX IMVI 32.6 µM | COLO 205 60.3 µM | K562 33 µM | SF-268 22.3 µM | MDA-MB-435 15.5 µM

CSC1=NN(C(C)=O)C(C(OC(C)=O)C(OC(C)=O)C(OC(C)=O)C(COC(C)=O)OC(C)=O)S1 (stereo not given)
inactive: U-251 > 100 µM | UO-31 11 µM | DU-145 > 100 µM | NCI/ADR-RES > 100 µM | SF-295 > 100 µM | RXF 393 > 100 µM | A498 > 100 µM | NCI-H522 > 100 µM | RPMI-8226 > 100 µM | HOP-92 > 100 µM | SR > 100 µM | TK-10 > 100 µM | UACC-257 > 100 µM | NCI-H23 > 100 µM | OVCAR-8 > 100 µM | LOX IMVI > 100 µM | COLO 205 > 100 µM | K562 > 100 µM | SF-268 > 100 µM | MDA-MB-435 > 100 µM

O=C(/C=C/c1ccccc1O)CC(=O)/C=C/c1ccccc1O
inactive: U-251 4.26 µM | UO-31 4.73 µM | DU-145 14.5 µM | NCI/ADR-RES 5.01 µM | SF-295 6.53 µM | RXF 393 3.25 µM | A498 23.3 µM | NCI-H522 3.72 µM | RPMI-8226 2.93 µM | HOP-92 5.81 µM | SR 2.67 µM | TK-10 23.7 µM | UACC-257 10.3 µM | NCI-H23 2.81 µM | OVCAR-8 4.41 µM | LOX IMVI 1.32 µM | COLO 205 3.95 µM | K562 3.82 µM | SF-268 > 10 µM | MDA-MB-435 4.38 µM

NC(=O)c1nc[nH]c1/N=N/SCC(N)C(=O)O (stereo not given)
active: SR 0.773 µM
inactive: U-251 > 80.7 µM | UO-31 4.22 µM | DU-145 5.11 µM | NCI/ADR-RES 6.58 µM | SF-295 6.32 µM | RXF 393 > 100 µM | A498 > 100 µM | NCI-H522 > 68.7 µM | RPMI-8226 6.24 µM | HOP-92 15.7 µM | TK-10 5.32 µM | UACC-257 54.8 µM | NCI-H23 > 78.9 µM | OVCAR-8 5.74 µM | LOX IMVI 2.61 µM | COLO 205 21.2 µM | K562 2.01 µM | SF-268 10.7 µM | MDA-MB-435 33.1 µM

CO/C(=N\N=C\c1cccc(C(F)(F)F)c1)c1ccncc1
inactive: U-251 5.14 µM | UO-31 4.47 µM | DU-145 7.85 µM | NCI/ADR-RES 1.82 µM | SF-295 1.76 µM | RXF 393 6.64 µM | A498 9.91 µM | NCI-H522 5.45 µM | RPMI-8226 2.37 µM | HOP-92 23.3 µM | SR 5.75 µM | TK-10 17.5 µM | UACC-257 14 µM | NCI-H23 12 µM | OVCAR-8 9.46 µM | LOX IMVI 7.76 µM | COLO 205 13.5 µM | K562 3.94 µM | SF-268 8.05 µM | MDA-MB-435 2.32 µM

CCOC(=O)c1c(N2CCCC2)ncn(Cc2ccccc2)c1=S
inactive: U-251 > 100 µM | UO-31 55.8 µM | DU-145 > 100 µM | NCI/ADR-RES > 100 µM | SF-295 > 100 µM | RXF 393 > 100 µM | A498 49.4 µM | NCI-H522 > 100 µM | RPMI-8226 > 100 µM | HOP-92 19.5 µM | SR > 100 µM | TK-10 > 100 µM | UACC-257 > 100 µM | NCI-H23 > 100 µM | OVCAR-8 > 100 µM | LOX IMVI > 100 µM | COLO 205 > 100 µM | K562 87.5 µM | SF-268 > 100 µM | MDA-MB-435 > 100 µM

C[C@H](CCc1nc(C#N)c(N)o1)[C@H]1CC[C@H]2[C@@H]3CCC4C[C@@H](O)CC[C@]4(C)[C@H]3C[C@@H](O)[C@]12C (stereo not given in full)
inactive: U-251 12.5 µM | UO-31 4.53 µM | DU-145 14.5 µM | NCI/ADR-RES 8.49 µM | SF-295 14.4 µM | RXF 393 9.27 µM | A498 18.7 µM | NCI-H522 3.65 µM | RPMI-8226 1.73 µM | HOP-92 14.4 µM | SR 3.05 µM | TK-10 14.7 µM | UACC-257 7.73 µM | NCI-H23 17.3 µM | OVCAR-8 4.56 µM | LOX IMVI 7.71 µM | COLO 205 12.7 µM | K562 4.46 µM | SF-268 11.3 µM | MDA-MB-435 15.1 µM

CCOP(=O)(O)C(Nc1ccc(/N=N/c2ccccc2)cc1)c1ccc(C(Nc2ccc(/N=N/c3ccccc3)cc2)P(=O)(O)OCC)cc1 (stereo not given)
inactive: U-251 18.1 µM | UO-31 67.1 µM | DU-145 > 100 µM | NCI/ADR-RES 27.4 µM | SF-295 18.9 µM | RXF 393 25.2 µM | A498 32 µM | NCI-H522 18.6 µM | RPMI-8226 23.7 µM | HOP-92 22.1 µM | SR 19.8 µM | TK-10 36.2 µM | UACC-257 26.4 µM | NCI-H23 29.2 µM | OVCAR-8 16.3 µM | LOX IMVI 15.6 µM | COLO 205 15.3 µM | K562 19.6 µM | SF-268 20.4 µM | MDA-MB-435 17.4 µM

CCCCc1ccc(Nc2nc(N)c3ncn(COCCO)c3n2)cc1
inactive: U-251 22.1 µM | UO-31 29.9 µM | DU-145 37.7 µM | NCI/ADR-RES 20.9 µM | SF-295 19.8 µM | RXF 393 30.1 µM | A498 28.2 µM | NCI-H522 26.1 µM | RPMI-8226 30.6 µM | HOP-92 18.2 µM | SR 18 µM | TK-10 52.6 µM | UACC-257 21.3 µM | NCI-H23 21.3 µM | OVCAR-8 25.9 µM | LOX IMVI 18.9 µM | COLO 205 17.2 µM | K562 7.01 µM | SF-268 33 µM | MDA-MB-435 22.1 µM

C[C@@H]1C[C@H]2CC[C@H](O2)[C@H](C)C(=O)O[C@@H](C)C[C@@H]2CC[C@@H](O2)[C@@H](C)C(=O)O[C@H](C)C[C@H]2CC[C@H](O2)[C@H](C)C(=O)O[C@@H](C)C[C@@H]2CC[C@@H](O2)[C@@H](C)C(=O)O1
active: U-251 0.366 µM | UO-31 0.374 µM | SF-295 0.242 µM | RXF 393 0.356 µM | A498 0.859 µM | NCI-H522 0.211 µM | RPMI-8226 0.0769 µM | HOP-92 0.183 µM | SR 0.495 µM | TK-10 0.425 µM | UACC-257 0.242 µM | NCI-H23 0.224 µM | OVCAR-8 0.295 µM | LOX IMVI 0.305 µM | COLO 205 0.155 µM | K562 0.228 µM | SF-268 0.316 µM | MDA-MB-435 0.338 µM
inactive: DU-145 1.43 µM | NCI/ADR-RES 2.17 µM
